In ChEMBL document CHEMBL1201862, “PubChem BioAssay data set” (2004):
Active and inactive are the calls of the source.

Legend:
[1] = biological target: T1, E3 ubiquitin-protein ligase XIAP (Homo sapiens, UniProt P98170); assay: Counter Screen using XIAP-Bir3 for Chemical Antagonists of Bir1/2 domains of IAP-family anti-apoptotic proteins. [Related pubchem assays (depositor defined):AID1018, AID1449, AID1514, AID1638, AID1749, AID1750, AID488957, AID488963]
[2] = biological target: T1, E3 ubiquitin-protein ligase XIAP; assay: small molecules displacing peptide from XIAP – biochemical, IAP family, fluorescence polarization (AID 1018); format: functional
SUMO-activating enzyme [3] = biological target: T2, SUMO-activating enzyme (Homo sapiens, UniProt Q9UBT2); assay: blockers of UBC9-mediated SUMO conjugation – biochemical, AlphaScreen, SUMOylation inhibitor project, confirmation (AID 2018); format: functional
Protein RecA = biological target: T3, Protein RecA (Mycobacterium tuberculosis, UniProt P9WHJ3); assay: Fluorescence Cell-Free Homogeneous Dose Retest to Identify Inhibitors of RecA-Intein Splicing Activity. [Related pubchem assays (depositor defined):AID2097, AID2223, AID489010, AID492950]; format: functional
T3 sequence (P9WHJ3 whole entry): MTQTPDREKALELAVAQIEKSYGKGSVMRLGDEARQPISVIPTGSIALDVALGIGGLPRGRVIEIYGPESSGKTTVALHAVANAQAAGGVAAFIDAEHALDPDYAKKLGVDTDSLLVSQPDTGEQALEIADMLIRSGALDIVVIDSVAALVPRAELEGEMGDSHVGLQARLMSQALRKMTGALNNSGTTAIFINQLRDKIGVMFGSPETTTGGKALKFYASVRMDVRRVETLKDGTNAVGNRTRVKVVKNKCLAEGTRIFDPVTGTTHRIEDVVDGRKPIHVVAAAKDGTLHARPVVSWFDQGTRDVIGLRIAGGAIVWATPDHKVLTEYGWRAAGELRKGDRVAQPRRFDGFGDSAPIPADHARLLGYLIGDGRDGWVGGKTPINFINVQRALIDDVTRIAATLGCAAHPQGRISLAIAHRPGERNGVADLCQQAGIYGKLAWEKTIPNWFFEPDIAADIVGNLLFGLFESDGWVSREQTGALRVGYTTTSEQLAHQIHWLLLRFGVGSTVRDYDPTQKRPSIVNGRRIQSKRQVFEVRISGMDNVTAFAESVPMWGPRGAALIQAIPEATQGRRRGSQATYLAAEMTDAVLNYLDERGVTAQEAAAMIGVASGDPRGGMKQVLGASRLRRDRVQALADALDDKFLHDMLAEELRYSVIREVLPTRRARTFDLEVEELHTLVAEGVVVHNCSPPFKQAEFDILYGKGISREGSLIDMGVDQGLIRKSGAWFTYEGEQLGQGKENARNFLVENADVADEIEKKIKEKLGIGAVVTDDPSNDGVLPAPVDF

[4] = biological target: T4, Replicative DNA helicase DnaB (Mycobacterium tuberculosis, UniProt P9WMR3); assay: DnaB intein splicing inhibitors, dose response, biochemical, cell-free fluorescence (AID 449749); format: functional
T4 sequence (P9WMR3 whole entry): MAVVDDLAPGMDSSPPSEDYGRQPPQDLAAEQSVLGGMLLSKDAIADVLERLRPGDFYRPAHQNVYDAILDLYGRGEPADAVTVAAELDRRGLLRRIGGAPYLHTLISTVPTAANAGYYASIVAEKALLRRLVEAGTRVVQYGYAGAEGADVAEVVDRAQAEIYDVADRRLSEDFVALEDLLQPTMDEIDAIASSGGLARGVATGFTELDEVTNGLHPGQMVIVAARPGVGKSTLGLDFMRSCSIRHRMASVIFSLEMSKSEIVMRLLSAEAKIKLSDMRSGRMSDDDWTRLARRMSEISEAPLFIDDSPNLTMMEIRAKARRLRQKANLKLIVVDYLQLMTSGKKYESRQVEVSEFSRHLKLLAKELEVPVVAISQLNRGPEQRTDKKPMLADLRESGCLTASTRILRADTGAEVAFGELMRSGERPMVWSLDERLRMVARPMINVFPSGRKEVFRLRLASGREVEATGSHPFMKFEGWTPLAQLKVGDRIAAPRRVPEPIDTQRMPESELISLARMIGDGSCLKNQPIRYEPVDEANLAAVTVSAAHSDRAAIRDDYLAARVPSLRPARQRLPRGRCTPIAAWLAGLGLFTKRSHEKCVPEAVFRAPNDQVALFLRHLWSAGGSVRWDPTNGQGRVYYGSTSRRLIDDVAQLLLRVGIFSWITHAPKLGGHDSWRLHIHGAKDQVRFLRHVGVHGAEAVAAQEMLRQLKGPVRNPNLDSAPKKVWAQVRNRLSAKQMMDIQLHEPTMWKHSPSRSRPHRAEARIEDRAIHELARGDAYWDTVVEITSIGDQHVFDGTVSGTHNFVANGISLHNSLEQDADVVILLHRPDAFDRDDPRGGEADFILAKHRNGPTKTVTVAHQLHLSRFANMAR

SUMO-activating enzyme [5] = biological target: T2, SUMO-activating enzyme; assay: blockers of SAE1/SAE2–UBC9 SUMO transfer – biochemical, HTRF, uHTS, primary screen (AID 2006); format: protein-complex assay
Vero = assay: viability of Vero cells under compound – cytotoxicity control for flavivirus capping enzyme inhibitors (AID 588742); format: functional; settings: Chlorocebus sabaeus
[6] = Trypanosoma cruzi growth suppression in host cells – NIH3T3 host cells, beta-gal luminescence, confirmation (AID 2044); format: functional, cell-based;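 note: intracellular parasites grown in NIH/3T3 mouse fibroblasts as host cells; luminescent beta-galactosidase reporter signal from transgenic T. cruzi replicating inside host cells; inhibitors lower the luminescence signal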
[7] = NIH3T3 cell viability loss – ATP luminescence, mouse fibroblasts, counter-screen, dose response (AID 2010); format: functional, cell-based;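 note: cells exposed to compound for about 90 hours before reading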
Insulin-degrading enzyme [8] = biological target: T5, Insulin-degrading enzyme (Homo sapiens, UniProt P14735); assay: recombinant IDE activation, cell-free – biochemical, fluorescence polarization, counter-screen for IDE activator project, dose response (AID 588681)
T5 sequence (P14735 whole entry): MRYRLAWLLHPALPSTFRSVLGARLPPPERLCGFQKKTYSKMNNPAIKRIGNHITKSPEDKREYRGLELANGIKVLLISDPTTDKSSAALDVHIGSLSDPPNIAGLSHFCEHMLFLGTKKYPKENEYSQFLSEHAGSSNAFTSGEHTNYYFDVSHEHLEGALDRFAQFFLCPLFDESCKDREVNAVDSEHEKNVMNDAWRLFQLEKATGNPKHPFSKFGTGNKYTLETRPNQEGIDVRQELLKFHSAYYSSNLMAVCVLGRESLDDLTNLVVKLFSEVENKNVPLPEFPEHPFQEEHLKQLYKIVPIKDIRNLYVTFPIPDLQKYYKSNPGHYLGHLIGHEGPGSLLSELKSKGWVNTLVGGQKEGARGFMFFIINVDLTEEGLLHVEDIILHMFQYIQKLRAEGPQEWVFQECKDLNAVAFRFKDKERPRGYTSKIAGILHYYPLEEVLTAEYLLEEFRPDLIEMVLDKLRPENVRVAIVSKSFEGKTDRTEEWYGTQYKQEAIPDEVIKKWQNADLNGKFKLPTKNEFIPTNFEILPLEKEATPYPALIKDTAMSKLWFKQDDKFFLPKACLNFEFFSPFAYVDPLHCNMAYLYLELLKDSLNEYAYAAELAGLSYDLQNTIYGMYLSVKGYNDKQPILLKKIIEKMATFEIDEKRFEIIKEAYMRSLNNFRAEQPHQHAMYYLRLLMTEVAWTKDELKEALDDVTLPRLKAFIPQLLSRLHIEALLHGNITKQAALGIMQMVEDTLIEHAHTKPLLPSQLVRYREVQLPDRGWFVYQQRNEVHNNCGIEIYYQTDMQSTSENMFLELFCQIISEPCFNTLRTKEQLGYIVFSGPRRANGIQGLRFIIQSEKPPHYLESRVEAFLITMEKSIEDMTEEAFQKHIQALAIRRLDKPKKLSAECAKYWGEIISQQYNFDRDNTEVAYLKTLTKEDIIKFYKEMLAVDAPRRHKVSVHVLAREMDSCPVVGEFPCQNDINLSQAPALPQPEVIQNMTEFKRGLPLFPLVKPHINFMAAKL

[9] = Vero E6 cell cytotoxicity, dose response, cytotoxicity control for non-replicating M. tuberculosis project, secondary assay (AID 492998); format: functional, VeroE6; settings: Vero C1008
[10] = HepG2 cell cytotoxicity, dose response, cytotoxicity control for non-replicating M. tuberculosis project (AID 489018); format: functional; settings: Mycobacterium tuberculosis
[11] = loss of viability in HepG2 cells – cell-based, CellTiter-Glo, cherry-picked, cytotoxicity control for Shn3 inhibitor project, dose response (AID 624134); format: functional
[12] = microbe, parasite or virus in culture; format: functional; settings: Mycobacterium tuberculosis
cells = format: functional
[13] = reduction of Shn3 3'UTR-driven luciferase in osteoblasts – cell-based, Clone20 osteoblasts, firefly luciferase, cherry-picked, dose response (AID 624132); format: functional;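 note: firefly luciferase luminescence from reporter carrying the Shn3 3'UTR in osteoblasts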
[14] = non-specific 3'UTR reporter inhibition in Clone20-Shn3RL – cell-based, Renilla luciferase, cherry-picked, counter-screen for Shn3 inhibitor project, dose response (AID 624133); format: functional
HEK293 [15] = assay: membrane integrity loss in HEK cells – cell-based, fluorescence, cytotoxicity control for IDE activator project, dose response (AID 588440); format: functional; settings: Homo sapiens;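 note: cytotoxicity by LDH release measuring loss of membrane integrity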
Insulin-degrading enzyme [16] = biological target: T5, Insulin-degrading enzyme; assay: cellular IDE activation of Abeta substrate cleavage – fluorescence polarization, HEK cells, dose response (AID 588439); format: functional, cell-based
[17] = biological target: T6, Ubiquitin-conjugating enzyme E2 N (Homo sapiens, UniProt P61088); format: functional;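 note: Dose-response confirmation in a TR-FRET assay detecting UBC13-driven polyubiquitin chain formation, inhibition measured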
T6 sequence (P61088 whole entry): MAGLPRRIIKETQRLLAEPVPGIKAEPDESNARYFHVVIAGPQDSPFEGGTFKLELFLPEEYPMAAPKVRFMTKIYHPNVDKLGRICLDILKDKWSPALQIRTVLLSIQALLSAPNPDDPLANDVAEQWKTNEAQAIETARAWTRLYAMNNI

HEK293 [18] = assay: optical interference in Abeta FP readout, dose response, artefact control for IDE activator project, biochemical, fluorescence polarization (AID 588442); format: functional, cell-based; settings: Homo sapiens
[19] = THP-1 cell cytotoxicity, dose response, cytotoxicity control for non-replicating M. tuberculosis project (AID 489025); format: functional

T1 sequence (P98170 whole entry): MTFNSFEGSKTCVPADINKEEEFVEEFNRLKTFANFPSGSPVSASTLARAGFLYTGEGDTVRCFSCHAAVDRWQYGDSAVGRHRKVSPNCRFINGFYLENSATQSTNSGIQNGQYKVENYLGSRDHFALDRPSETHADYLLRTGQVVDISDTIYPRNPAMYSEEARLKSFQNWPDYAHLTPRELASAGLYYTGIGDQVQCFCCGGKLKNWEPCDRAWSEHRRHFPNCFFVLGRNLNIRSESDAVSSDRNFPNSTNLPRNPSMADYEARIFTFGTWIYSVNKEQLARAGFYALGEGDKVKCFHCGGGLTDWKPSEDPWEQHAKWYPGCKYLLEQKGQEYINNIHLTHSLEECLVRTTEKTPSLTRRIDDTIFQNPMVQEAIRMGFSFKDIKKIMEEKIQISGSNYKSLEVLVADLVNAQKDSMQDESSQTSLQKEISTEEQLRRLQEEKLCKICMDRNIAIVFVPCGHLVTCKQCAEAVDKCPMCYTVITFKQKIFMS
T2 sequence (Q9UBE0 whole entry): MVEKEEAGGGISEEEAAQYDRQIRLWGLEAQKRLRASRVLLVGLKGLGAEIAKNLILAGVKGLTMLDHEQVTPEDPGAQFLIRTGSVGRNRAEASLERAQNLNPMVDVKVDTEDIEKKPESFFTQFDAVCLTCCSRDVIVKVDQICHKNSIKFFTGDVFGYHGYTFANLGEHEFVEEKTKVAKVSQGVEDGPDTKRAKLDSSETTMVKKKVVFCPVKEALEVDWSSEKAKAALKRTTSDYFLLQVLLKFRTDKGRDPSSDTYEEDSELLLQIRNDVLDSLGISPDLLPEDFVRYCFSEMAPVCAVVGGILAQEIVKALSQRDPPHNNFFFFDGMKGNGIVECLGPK
T2 sequence (Q9UBT2 whole entry): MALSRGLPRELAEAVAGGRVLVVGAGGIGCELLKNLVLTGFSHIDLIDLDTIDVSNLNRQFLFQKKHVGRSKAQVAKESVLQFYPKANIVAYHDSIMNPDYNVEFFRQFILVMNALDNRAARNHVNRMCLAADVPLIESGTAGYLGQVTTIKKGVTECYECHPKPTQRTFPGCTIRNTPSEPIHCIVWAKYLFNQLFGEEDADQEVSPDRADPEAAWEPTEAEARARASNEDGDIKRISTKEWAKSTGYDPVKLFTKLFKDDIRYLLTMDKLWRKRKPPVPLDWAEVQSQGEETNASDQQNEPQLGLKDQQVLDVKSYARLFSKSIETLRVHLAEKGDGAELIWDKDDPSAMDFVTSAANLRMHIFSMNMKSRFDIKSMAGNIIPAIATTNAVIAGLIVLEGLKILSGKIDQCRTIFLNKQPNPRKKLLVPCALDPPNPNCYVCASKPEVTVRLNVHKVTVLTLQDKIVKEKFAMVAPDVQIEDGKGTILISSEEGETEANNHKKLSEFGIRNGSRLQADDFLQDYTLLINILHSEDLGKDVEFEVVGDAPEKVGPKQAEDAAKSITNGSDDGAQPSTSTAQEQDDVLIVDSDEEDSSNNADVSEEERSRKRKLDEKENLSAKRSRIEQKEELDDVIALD

SMILES: O=C1C2C3c4ccccc4C(c4ccccc43)C2C(=O)N1c1ccncc1 (configuration not stated)
- IC50 [1]: > 100 µM (inactive)
- IC50 [2]: > 100 µM (not active)

SMILES: CCCCCn1c(NC(=O)c2ccco2)c(S(=O)(=O)c2ccc(C)cc2)c2nc3ccccc3nc21
- IC50 (SUMO-activating enzyme [3]): 2.74 µM (active)
- EC50 (Protein RecA): > 380 µM (inconclusive)
- AC50 [4]: > 380 µM (inactive)
- IC50 (SUMO-activating enzyme [5]): 13.1 µM (active)
- CC50 (Vero): > 40 µM (active)
- EC50 [6]: 3.27 µM (active)
- EC50 [7]: > 60 µM (not active)

SMILES: CCCCCCCNC(=O)C1(CC2CC(c3cccc(Br)c3)=NO2)CCNCC1 (configuration not stated)
- EC50 (Insulin-degrading enzyme [8]): > 54.7 µM (inactive)
- CC50 [9]: 15.2 µM (active)
- CC50 [10]: 5.99 µM (active)
- AC50 [11]: 14.1 µM (active)
- CC50 [12]: 6.71 µM (active)
- IC50 (cells): 17.2 µM (active)
- AC50 [13]: 11.7 µM (active)
- AC50 [14]: 16.5 µM (active)
- IC50 (HEK293 [15]): 7.51 µM (active)
- EC50 (Insulin-degrading enzyme [16]): 54.5 µM (inactive)
- IC50 [17]: > 20 µM (inactive)
- EC50 (HEK293 [18]): > 55.9 µM (inactive)
- CC50 [19]: 6.82 µM (active)
